Laboratory results: patent US20260250312A1, “ANTIBACTERIAL COMPOUNDS ELIMINATING DORMANT BACTERIAL CELLS” (UNIVERSITÉ D'AIX-MARSEILLE, priority 2022, published 2026)
Values after ≈ are worked out from the molar mass of the structure shown. Values joined by “and” are separate entries in the source; they are usually repeats but may differ in a detail not shown here. Identical values can stand only once. Like-named read-outs stand apart in the source and are kept apart here.

Legend:
[1] = tested on: Staphylococcus aureus (ATCC25923); assay: Microdilution MIC assay (CLSI-based), S. aureus; type: cell-based; conditions: 20 hours incubation at 35-37° C., MHB; for MIC: read-out: Minimum inhibitory concentration S. aureus ATCC25923
Summary of the method: (§1)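 Broth microdilution per modified CLSI guidelines in Mueller Hinton broth, 200 μL, inoculum ca. 5×10^5 CFU/mL; compounds tested as salts, twofold dilutions from 0.2 mg/mL, in triplicate. MIC determined from OD at 620 nm after incubation.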

[2] = tested on: Enterococcus faecalis (ATCC29212); assay: Microdilution MIC assay (CLSI-based), E. faecalis; type: cell-based; conditions: 20 hours incubation at 35-37° C., MHB; for MIC: read-out: Minimum inhibitory concentration E. faecalis ATCC29212
Summary of the method: as §1

[3] = tested on: Escherichia coli (ATCC28922); assay: Microdilution MIC assay (CLSI-based), E. coli; type: cell-based; conditions: 20 hours incubation at 35-37° C., MHB; for MIC: read-out: Minimum inhibitory concentration E. coli ATCC28922
Summary of the method: as §1

[4] = tested on: Pseudomonas aeruginosa (ATCC27853); assay: Microdilution MIC assay (CLSI-based), P. aeruginosa; type: cell-based; conditions: 20 hours incubation at 35-37° C., MHB; for MIC: read-out: Minimum inhibitory concentration P. aeruginosa ATCC27853
Summary of the method: as §1

CHO-K1 cells = assay: WST1 cytotoxicity test; type: cell-based, Chinese hamster
Summary of the method: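 CHO-K1 cells pre-cultured 24 h, then exposed 24 h at 37 °C to increasing compound concentrations. Viability read as WST-1 formazan absorbance at 450 nm after 20 min; dose-response fitted by nonlinear regression.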

[5] = tested on: Escherichia coli (E. coli) persister cells; assay: Anti-persister activity test, persister cells; type: cell-based; conditions: for anti-persister activity (in words): E. coli persister cells, Table 8 conditions; for viability at 250 µM: 4 h, read-out: Persister cell survival rate 96 h, concentration used 250 μM, 4 hours treatment
Method: (§2) Anti-persister activity test: Escherichia coli (E. coli) persister cells were generated and isolated as described by MARQUES, C. N. H. et al. (Applied and Environmental Microbiology 2014, Vol. 80, No. 22, pp. 6976-6991). E. coli persister cells were compared to E. coli non-persister cells. 1 mL persister or non-persister bacteria culture was added in a 1.5 mL microtube with each of the compounds to be tested or ciprofloxacin as a […], and incubated at 37° C. with 160 rpm shaking for 4 hours. After 4 hours treatment with the compounds, the microtubes were centrifuged at 3,500g for 5 minutes and the pellets were resuspended in 1 mL of fresh drug free RM broth (10 g/L M9 salt, 2% casamino acids, 1 mM MgCl2, 1% glycerol). Resuspended bacteria were then plated over LB agar plates and incubated at 37° C. Bacterial colonies were enumerated after 24, 48 and 96 hours to estimate the survival rate.

[6] = tested on: E. coli non-persister cells; assay: Anti-persister activity test, non-persister cells; type: cell-based, Escherichia coli; conditions: Escherichia coli; for viability at 250 µM: 4 h, read-out: Non-persister cell survival rate 96 h, concentration used 250 μM, 4 hours treatment
Method: as §2

[7] = Staphylococcus aureus, ATCC25923, 20 h
[8] = Enterococcus faecalis, ATCC29212, 20 h
[9] = Escherichia coli, ATCC28922, 20 h
[10] = Pseudomonas aeruginosa, ATCC27853, 20 h
[11] = Cricetulus griseus, CHO-K1, 24 h, WST1, 24 hours at 37° C., read-out: IC50 CHO
[12] = Cricetulus griseus, CHO-K1, WST1, as printed in Table 8, read-out: Toxicity IC50 CHO

SMILES | MIC [1, 7] | MIC [2, 8] | MIC [3, 9] | MIC [4, 10] | IC50 (CHO-K1 cells; [11]) | other results
COC(=O)[C@H](NC(=O)CC[C@@H](C)[C@H]1CCC2C3C(C[C@H](O)[C@@]21C)[C@@]1(C)CC[C@H](NCCCN(CCCN)CCCN)C[C@H]1C[C@H]3O)C(C)C (stereo partly drawn) [Compound S060, methyl ((4R)-4-((3S,5S,7R,10S,12S,13R,17R)-3-((3-(bis(3-aminopropyl)amino)propyl)amino)-7,12-dihydroxy-10,13-dimethylhexadecahydro-1H-cyclopenta[a]phenanthren-17-yl)pentanoyl)-D-valinate] | 40 µM and 32 µg/mL | 160 µM and 128 µg/mL | 160 µM and 128 µg/mL | 160 µM and 128 µg/mL | 186 µM and 129 µg/mL | toxicity results (in words) (CHO-K1 cells): good toxicity results; IC50 (CHO-K1 cells; [12]): 186 µM; anti-persister activity (in words) [5]: very potent anti-persister activity; viability at 250 µM ([5]; Escherichia coli): 2%; viability at 250 µM [6]: 3.8%
O=C(O)c1cn(C2CC2)c2cc(N3CCNCC3)c(F)cc2c1=O [Ciprofloxacin, ciprofloxacin, reference compound] |  |  |  |  |  | viability at 200 µM ([5]; Escherichia coli, concentration used 200 μM, 4 hours treatment, read-out: Persister cell survival rate 96 h): 5.6%; viability at 200 µM ([6]; concentration used 200 μM, 4 hours treatment, read-out: Non-persister cell survival rate 96 h): 0%
COC(=O)[C@@H](Cc1ccccc1)NC(=O)CC[C@@H](C)[C@H]1CCC2C3C(CC[C@@]21C)[C@@]1(C)CC[C@H](NCCNCCNCCN)C[C@H]1C[C@H]3O (stereo partly drawn) [Compound S010, methyl ((4R)-4-((3S,5S,7R,10S,13R,17R)-3-((2-((2-((2-aminoethyl)amino)ethyl)amino)ethyl)amino)-7-hydroxy-10,13-dimethylhexadecahydro-1H-cyclopenta[a]phenanthren-17-yl)pentanoyl)-D-phenylalaninate] | 12.5 µM and 8 µg/mL | 12.5 µM and 8 µg/mL | 50 µM and 32 µg/mL | 50 µM and 32 µg/mL | 114 µM and 77.4 µg/mL | toxicity results (in words) (CHO-K1 cells): good toxicity results; IC50 (CHO-K1 cells; [12]): 114 µM; anti-persister activity (in words) [5]: very potent anti-persister activity; viability at 250 µM ([5]; Escherichia coli): 0.8%; viability at 250 µM [6]: 4.2%
COC(=O)[C@@H](NC(=O)CC[C@@H](C)[C@H]1CCC2C3C(CC[C@@]21C)[C@@]1(C)CC[C@H](NCCCCN)C[C@H]1C[C@H]3O)C(C)C (stereo partly drawn) [Compound S043, methyl ((4R)-4-((3S,5S,7R,10S,13R,17R)-3-((4-aminobutyl)amino)-7-hydroxy-10,13-dimethylhexadecahydro-1H-cyclopenta[a]phenanthren-17-yl)pentanoyl)-L-valinate] | 25 µM and 16 µg/mL | 25 µM and 16 µg/mL | 50 µM and 32 µg/mL | 200 µM and 128 µg/mL | 107 µM and 61.9 µg/mL | 
COC(=O)[C@H](Cc1ccccc1)NC(=O)CC[C@@H](C)[C@H]1CCC2C3C(CC[C@@]21C)[C@@]1(C)CC[C@H](NCCCN)C[C@H]1C[C@H]3O (stereo partly drawn) [Compound S016, methyl ((4R)-4-((3S,5S,7R,10S,13R,17R)-3-((3-aminopropyl)amino)-7-hydroxy-10,13-dimethylhexadecahydro-1H-cyclopenta[a]phenanthren-17-yl)pentanoyl)-L-phenylalaninate] | 12.5 µM and 8 µg/mL | 25 µM and 16 µg/mL | 25 µM and 16 µg/mL | 50 µM and 32 µg/mL | 66 µM and 40.2 µg/mL | 
COC(=O)[C@H](NC(=O)CC[C@@H](C)[C@H]1CCC2C3C(CC[C@@]21C)[C@@]1(C)CC[C@H](NCCCNCCCN)C[C@H]1C[C@H]3O)C(C)C (stereo partly drawn) [Compound S007, methyl ((4R)-4-((3S,5S,7R,10S,13R,17R)-3-((3-((3-aminopropyl)amino)propyl)amino)-7-hydroxy-10,13-dimethylhexadecahydro-1H-cyclopenta[a]phenanthren-17-yl)pentanoyl)-D-valinate] |  |  |  |  |  | Minimum inhibitory concentration S. aureus ATCC25923 [1]: 8 mg/L (≈ 12.9 µM); MIC [1]: 12.5 µM (≈ 7.74 µg/mL); Minimum inhibitory concentration E. faecalis ATCC29212 [2]: 8 mg/L (≈ 12.9 µM); MIC [2]: 12.5 µM (≈ 7.74 µg/mL); Minimum inhibitory concentration E. coli ATCC28922 [3]: 4 mg/L (≈ 6.46 µM); MIC [3]: 6.25 µM (≈ 3.87 µg/mL); Minimum inhibitory concentration P. aeruginosa ATCC27853 [4]: 16 mg/L (≈ 25.9 µM); MIC [4]: 25 µM (≈ 15.5 µg/mL); IC50 CHO (CHO-K1 cells; WST1, 24 hours at 37° C.): 70.20 mg/L (≈ 113 µM); IC50 (CHO-K1 cells; WST1, 24 hours at 37° C., read-out: IC50 CHO): 113 µM
COC(=O)[C@H](NC(=O)CC[C@@H](C)[C@H]1CCC2C3C(CC[C@@]21C)[C@@]1(C)CC[C@H](NCCCN)C[C@H]1C[C@H]3O)C(C)C (stereo partly drawn) [Compound S018, methyl ((4R)-4-((3S,5S,7R,10S,13R,17R)-3-((3-aminopropyl)amino)-7-hydroxy-10,13-dimethylhexadecahydro-1H-cyclopenta[a]phenanthren-17-yl)pentanoyl)-D-valinate] | 50 µM and 32 µg/mL | 100 µM and 64 µg/mL | 200 µM and 128 µg/mL | 200 µM and 128 µg/mL | 10.9 µM and 6.1 µg/mL | 
COC(=O)[C@H](Cc1ccccc1)NC(=O)CC[C@@H](C)[C@H]1CCC2C3C(CC[C@@]21C)[C@@]1(C)CC[C@H](NCCCN(C)CCCN)C[C@H]1C[C@H]3O (stereo partly drawn) [Compound S031, methyl ((4R)-4-((3S,5S,7R,10S,13R,17R)-3-((3-((3-aminopropyl)(methyl)amino)propyl)amino)-7-hydroxy-10,13-dimethylhexadecahydro-1H-cyclopenta[a]phenanthren-17-yl)pentanoyl)-L-phenylalaninate] | 6.25 µM and 4 µg/mL | 25 µM and 16 µg/mL | 12.5 µM and 8 µg/mL | 25 µM and 16 µg/mL | 84.5 µM and 57.6 µg/mL | 
COC(=O)[C@H](NC(=O)CC[C@@H](C)[C@H]1CCC2C3C(CC[C@@]21C)[C@@]1(C)CC[C@H](NCCN)C[C@H]1C[C@H]3O)C(C)C (stereo partly drawn) [Compound S008, methyl ((4R)-4-((3S,5S,7R,10S,13R,17R)-3-((2-aminoethyl)amino)-7-hydroxy-10,13-dimethylhexadecahydro-1H-cyclopenta[a]phenanthren-17-yl)pentanoyl)-D-valinate] | 25 µM and 16 µg/mL | 25 µM and 16 µg/mL | 25 µM and 16 µg/mL | 200 µM and 128 µg/mL | 86 µM and 47.1 µg/mL | 
COC(=O)[C@H](NC(=O)CC[C@@H](C)[C@H]1CCC2C3C(CC[C@@]21C)[C@@]1(C)CC[C@H](NCCNCCN)C[C@H]1C[C@H]3O)C(C)C (stereo partly drawn) [Compound S020, methyl ((4R)-4-((3S,5S,7R,10S,13R,17R)-3-((2-((2-aminoethyl)amino)ethyl)amino)-7-hydroxy-10,13-dimethylhexadecahydro-1H-cyclopenta[a]phenanthren-17-yl)pentanoyl)-D-valinate] | 100 µM and 64 µg/mL | > 200 µM and > 128 µg/mL | 100 µM and 64 µg/mL | > 200 µM and > 128 µg/mL | 17.2 µM and 10.2 µg/mL | 
COC(=O)[C@@H](NC(=O)CC[C@@H](C)[C@H]1CC[C@H]2[C@@H]3[C@H](O)C[C@@H]4CC(NCCCNCCCCNCCCN)CC[C@]4(C)[C@H]3CC[C@]12C)C(C)C (mixture of isomers) [Compound S001, methyl ((4R)-4-((3S,5S,7R,10S,13R,17R)-3-((3-((4-((3-aminopropyl)amino)butyl)amino)propyl)amino)-7-hydroxy-10,13-dimethylhexadecahydro-1H-cyclopenta[a]phenanthren-17-yl)pentanoyl)valinate] | 3.12 µM and 2 µg/mL | 25 µM and 16 µg/mL | 12.5 µM and 8 µg/mL | 12.5 µM and 8 µg/mL | 4.41 µM and 3.04 µg/mL | 
